Results as given in US20220153732A1, “PROTEIN SECRETION INHIBITORS” (KEZAR LIFE SCIENCES, priority 2019, published 2022).
Like-named read-outs stand apart in the source and are kept apart here.

Columns and labels:
Type in all cases: cell-based
[1] = system: human multiple myeloma cell line U266B1; test: U266 Cell Viability Assay; conditions: U-266, 48 hr, U266B1 cells, Celltiter-Glo, read-out: 48 hr U266 Viability Celltiter-Glo: Mean EC50
Description: Cells were plated in 384-well tissue culture plates and treated with compound dilutions in DMSO/media. Plates were incubated at 37° C., 5% CO2 for 48 hours. After 48 hours, Celltiter-Glo® (Promega) was added to each well and luciferase signal was quantified using Tecan Infinite M1000 Pro for cell viability determination.
(§1) For chemical structures that include one or more stereoisomers, but are illustrated without indicating stereochemistry, the assay data refers to a mixture of stereoisomers.

[2] = system: TNFα-FL/Gaussia Luciferase; test: Dox Induced TNFα-FL-Gluc Assay; conditions: 293FRT/TO cells, read-out: 24 hr Dox Inducible TNFaFLGluc 293FRT/TO: Mean IC50
Description: (§2) Transfected cells were selected for resistance to the selectable markers Hygromycin and Blasticidin to create a stable cell line that contained the TNFα-FL/Gaussia Luciferase cDNA insert whose expression was regulated under the T-RExTM system. The day before assay, cells were trypsinized and plated in 384-well tissue culture plates. The next day, compound dilutions in DMSO/media containing doxycycline were added to the wells and incubated at 37° C., 5% CO2. […] For chemical structures that include one or more stereoisomers, but are illustrated without indicating stereochemistry, the assay data refers to a mixture of stereoisomers.

[3] = system: PD1-ss+10aa/Gaussia Luciferase; test: Dox-Induced PD1-ss-Gluc Assay; conditions: 293FRT/TO cells, read-out: 24 hr Dox Inducible PD1ssGluc 293FRT/TO: Mean IC50
Description: (§3) Transfected cells were selected for resistance to the selectable markers Hygromycin and Blasticidin to create a stable cell line that contained the PD1-ss+10aa/Gaussia Luciferase cDNA insert whose expression was regulated under the T-REx™ system. The day before assay, cells were trypsinized and plated in 384-well tissue culture plates. The next day, compound dilutions in DMSO/media containing doxycycline were added to the wells and incubated at 37° C., 5% CO2.
as §1

[4] = system: IL-2-FL/Gaussia Luciferase; test: Dox Induced IL2-FL-Gluc Assay; conditions: 293FRT/TO cells, read-out: 24 hr Dox Inducible IL2FLGIuc 293FRT/TO: Mean IC50
Description: as §2, with “IL-2-FL/Gaussia” for “TNFα-FL/Gaussia”

[5] = system: HER3-ss+4aa/Gaussia Luciferase; test: Dox-Induced Her3-ss-Gluc Assay; conditions: 293FRT/TO cells, read-out: 24 hr Dox Inducible Her3(ss + 4)Gluc 293FRT/TO: Mean IC50
Description: as §3, with “HER3-ss+4aa/Gaussia” for “PD1-ss+10aa/Gaussia”
as §1

[6] = system: human multiple myeloma cell line NCI-H929; test: H929 Cell Viability Assay; conditions: 48 hr, NCI-H929 cells, Celltiter-Glo, read-out: 48 hr H929 Viability Celltiter-Glo: Mean EC50
Description: Plates were incubated at 37° C., 5% CO2 for 48 hours. After 48 hours, Celltiter-Glo® (Promega) was added to each well and luciferase signal was quantified using Tecan Infinite M1000 Pro for cell viability determination.
as §1

[7] = 24 hr doxycycline induction, Gaussia luciferase signal

| SMILES | EC50 [1] [µM] | IC50 [2, 7] [µM] | IC50 [3, 7] [µM] | IC50 [4, 7] [µM] | IC50 [5, 7] [µM] | EC50 [6] [µM] | IC50 ([2]; 24 hr, doxycycline-induced) [µM] | IC50 ([3]; 24 hr, doxycycline-induced) [µM] | IC50 ([4]; 24 hr, doxycycline-induced) [µM] | IC50 ([5]; 24 hr, doxycycline-induced) [µM] |
| --- | --- | --- | --- | --- | --- | --- | --- | --- | --- | --- |
| O=C(Nc1nc(/C=C/c2ccc(C(F)(F)F)cc2)cs1)c1cccn1Cc1ccncc1 [Compound A219, 1-(pyridin-4-ylmethyl)-N-(4-(4-(trifluoromethyl)styryl)thiazol-2-yl)-1H-pyrrole-2-carboxamide] | 13.7 | 0.946 | 0.048 | 0.443 | 0.234 | 8.6 | – | – | – | – |
| CC(C)OC(C)(C)c1csc(NC(=O)c2ccc(C(N)=O)n2Cc2ccncc2)n1 [Compound A105, N-(4-(2-isopropoxypropan-2-yl)thiazol-2-yl)-1-(pyridin-4-ylmethyl)-1H-pyrrole-2,5-dicarboxamide] | > 25 | > 25 | > 25 | > 25 | > 25 | > 25 | – | – | – | – |
| O=C(Nc1nc(C2Cc3ccccc3O2)cs1)c1cccn1Cc1ccncc1 (stereo not drawn) [Compound A288] | > 25 | 3.03 | 0.44 | 1.54 | 1.26 | 23.9 | – | – | – | – |
| CC(C)c1csc(NC(=O)[C@@H]2CCCN2C(=O)c2ccncc2)n1 [Compound B20, (S)-1-isonicotinoyl-N-(4-isopropylthiazol-2-yl)pyrrolidine-2-carboxamide] | > 25 | – | – | – | – | > 25 | > 25 | > 25 | > 25 | > 25 |
| CC(C)OC(C)(C)c1csc(NC(=O)c2cccn2Cc2cc[n+]([O-])cc2)n1 [Compound A85] | > 25 | > 25 | 7.54 | > 25 | > 25 | > 25 | – | – | – | – |
| O=C(Nc1nc(/C=C/c2ccc(OC3CC3)cc2)cs1)c1cccn1Cc1ccncc1 [Compound A248, N-(4-(4-cyclopropoxystyryl)thiazol-2-yl)-1-(pyridin-4-ylmethyl)-1H-pyrrole-2-carboxamide] | > 25 | 1.51 | 0.038 | 0.211 | 0.152 | > 25 | – | – | – | – |
| CC(C)OC(C)(C)c1csc(NC(=O)c2cccn2CC2CCN(C)CC2)n1 [Compound A129, N-(4-(2-isopropoxypropan-2-yl)thiazol-2-yl)-1-((1-methylpiperidin-4-yl)methyl)-1H-pyrrole-2-carboxamide] | > 25 | > 25 | > 25 | > 25 | > 25 | > 25 | – | – | – | – |
| O=C(Nc1nc(/C=C/c2ccccn2)cs1)c1cccn1Cc1ccncc1 [Compound A164] | > 25 | 23.7 | 0.098 | 6.77 | 8.4 | 17.7 | – | – | – | – |
| Cc1cc(C(=O)Nc2nc(C(C)(C)OC(C)C)cs2)n(Cc2ccncc2)n1 [Compound A103] | > 25 | > 25 | > 25 | > 25 | > 25 | > 25 | – | – | – | – |
| CC(=O)Nc1ccc(/C=C/c2csc(NC(=O)c3cccn3Cc3ccncc3)n2)cc1 [Compound A223, N-(4-(4-acetamidostyryl)thiazol-2-yl)-1-(pyridin-4-ylmethyl)-1H-pyrrole-2-carboxamide] | > 25 | > 25 | 0.513 | 8.04 | 3.12 | 22.3 | – | – | – | – |
| O=C(Nc1nc(/C=C/C2CCCCO2)cs1)c1cccn1Cc1ccncc1 (stereo not drawn) [Compound A155, 1-(pyridin-4-ylmethyl)-N-(4-(2-(tetrahydro-2H-pyran-2-yl)vinyl)thiazol-2-yl)-1H-pyrrole-2-carboxamide] | > 25 | 15.9 | 0.232 | 4.37 | 2.14 | > 25 | – | – | – | – |
| O=C(Nc1nc2c(s1)COCC2)c1cccn1Cc1ccncc1 [Compound A95] | > 25 | > 25 | 14.7 | > 25 | > 25 | > 25 | – | – | – | – |
| O=C(Nc1nc(N2CCCC(c3ccccc3)C2)cs1)c1cccn1Cc1ccncc1 (stereo not drawn) [Compound A265] | > 25 | > 25 | 9.06 | 7.3 | > 25 | > 25 | – | – | – | – |
| O=C(Nc1nc(/C=C/c2ccc(OC3CC3)cc2F)cs1)c1cccn1Cc1ccncc1 [Compound A304] | 14.3 | – | – | – | – | 6.27 | 0.236 | 0.02 | 0.178 | 0.108 |
| CC(C)OC(C)(C)c1csc(NC(=O)c2cccn2Cc2ccc(=O)n(C)c2)n1 [Compound A124, N-(4-(2-isopropoxypropan-2-yl)thiazol-2-yl)-1-((1-methyl-6-oxo-1,6-dihydropyridin-3-yl)methyl)-1H-pyrrole-2-carboxamide] | > 25 | > 25 | > 25 | > 25 | > 25 | > 25 | – | – | – | – |
| COCc1csc(NC(=O)c2cccn2Cc2ccncc2)n1 [Compound A81] | > 25 | > 25 | 4.62 | > 25 | 23 | > 25 | – | – | – | – |
| CC(C)OC(C)(C)c1csc(NC(=O)c2ccc(C(=O)N(C)C)n2Cc2ccncc2)n1 [Compound A107, N2-(4-(2-isopropoxypropan-2-yl)thiazol-2-yl)-N5,N5-dimethyl-1-(pyridin-4-ylmethyl)-1H-pyrrole-2,5-dicarboxamide] | > 25 | > 25 | > 25 | > 25 | > 25 | > 25 | – | – | – | – |
| CC(C)(OCC1CCCCO1)c1csc(NC(=O)c2cccn2Cc2ccncc2)n1 (stereo not drawn) [Compound A39, 1-(pyridin-4-ylmethyl)-N-(4-(2-((tetrahydro-2H-pyran-2-yl)methoxy)propan-2-yl)thiazol-2-yl)-1H-pyrrole-2-carboxamide] | > 25 | 13.1 | 0.723 | 1.34 | 1.49 | > 25 | – | – | – | – |
| O=C(Nc1nc2cccnc2s1)c1cccn1Cc1ccncc1 [Compound A121] | > 25 | > 25 | > 25 | > 25 | > 25 | > 25 | – | – | – | – |
| CC(C)(COc1ccccn1)c1csc(NC(=O)c2cccn2Cc2ccncc2)n1 [Compound A260] | > 25 | 4.61 | 0.478 | 0.95 | 0.974 | 10.9 | – | – | – | – |
| CC(C)OC(C)(C)c1csc(NC(=O)c2cccn2Cc2cccnc2)n1 [Compound A87, N-(4-(2-isopropoxypropan-2-yl)thiazol-2-yl)-1-(pyridin-3-ylmethyl)-1H-pyrrole-2-carboxamide] | > 25 | > 25 | 8.13 | 8.59 | > 25 | > 25 | – | – | – | – |
| CC(c1ccccc1)c1csc(NC(=O)c2cccn2Cc2ccncc2)n1 (stereo not drawn) [Compound A21] | > 25 | 3.68 | 0.259 | 0.502 | 0.59 | > 25 | – | – | – | – |
